# In US10507247B2, “Optical probes for matrix metalloproteinases” (The University Court of the University of Edinburgh, priority 2015, dated 2019):
# Primed or numbered codes have the meaning given here. Where no end group is shown, it is not given here. [ ]: non-standard residue; d: D form. The star is where a group is joined. 5FAM = O=C1OC2(c3ccc(O)cc3Oc3cc(O)ccc32)c2ccc(C(=O)*)cc21; MethylRed = CN(C)c1ccc(/N=N/c2ccccc2C(=O)*)cc1; PEG2′ = PEG spacer unit (glycol linker); Nle = CCCC[C@H](N)C(=O)O; Ahx = NCCCCCC(=O)O; βAla = NCCC(=O)O
# How the values were obtained:
# MMP = assay: Activation of probe variants by MMP in vitro; assay type: biochemical
# Procedure: The selectivity of the probes, together with further probes AMF-14b, SVC-030 (both defined in Table 6 below) and SVC-068 (defined in Table 4 below), to detect MMP over elastase, another proteinase relevant in lung disease, was tested and the results for all probes are shown in FIG. 2.
# Variants consisting of D-amino acids at the recognition site sequence with or without blocking PEG units were also synthesised and assessed.
# (§1) The enzyme assays were run in a 384-well format on a PCR opaque microplate (Thermo Scientific). All dilutions and reactions were prepared in MMP buffer (50 mM Tris, 10 mM CaCl2, 0.15M NaCl, 0.05% Brij-35, pH 7). Proteolytic activity was determined by calculating the fold change in fluorescence over background signal provided by the corresponding dilution of the probe and/or inhibitors with exogenous enzymes using a-multiwell plate fluorimeter (Synergy H1 Hybrid Reader, BioTek instruments Ltd) at excitation/emission 485/528 nm. Recombinant human MMPs (Catalytic domain MMP-1, -2, -3, -7, -8, -9, -10, -11, -12, -13 (Enzo Life Sciences) and Full-length MMP-2, -9, -12 and -13 (Merck/Millipore)) were used at 30 nM. Pro-MMP-13 (R & D Systems) was activated by incubating with 1 mM 4-aminophenylmercunc acetate (APMA) for 2 hrs at 37° C. Human neutrophil elastase (Elastase Product Company, used at 2.5 ug/ml), neutrophil lysate (lysed human neutrophils), and recombinant human Thrombin (Sigma-Aldrich, used at 5 U/ml), Plasmin (Sigma-Aldrich, used at 30 nM) and Factor Xa (Sigma-Aldrich, used at 0.5 μM) were used to identify the lead molecular probe sequences. For inhibition assays, enzyme and inhibitor were pre-incubated for 1 hr at 37° C. before the addition of molecular probe.
# MMP-9 = assay: Enzyme assay, fold change in probe fluorescence over background with MMP-9; assay type: biochemical, human; settings: for MMP-9 (83 kDa), fold change in fluorescent signal: different probe scaffolds (monomer, dendrimers); for MMP-9 (39.0 kDa), fold change in fluorescence over background: FRET monomers, recombinant human catalytic domain MMP at 30 nM, ex/em 485/528 nm
# Procedure: A library of probes (listed in Table 2 below) containing FAM (Carboxyfluorescein) as the fluorophore (donor) and MethylRed (MR) as the quencher (acceptor) and a variety of peptide sequences was synthesized by manual standard solid-phase Fmoc peptide chemistry (described below).
# (§2) Enzyme specificity of the lead probes with exogenous enzymes was tested using a multiwell plate fluorimeter at excitation/emission 485/528 nm (Table 3). Recombinant human catalytic domain MMPs-1, -2, -3, -7, -8, -9, -10, -11, -12, -13 were used at 30 nM. Cleavage site for each sequence is indicated in italics.
# (§3) The different compounds were also evaluated according to the fold change in fluorescent signal in presence of MMP-9 and MMP-13, and the results are shown in Table 7. From this comparison, the FRET dendrimers comprising SEQ ID NO.1 and SEQ ID NO.7 (AMF-106 and SVC-186) together with the 9Dendrimer comprising SEQ ID NO.7 (SVC-196) were chosen for further evaluation. These dendrimers are shown in FIG. 7, probe A (AMF-106), probe B (SVC-186) and probe C (SVC-196).
# as §1
# MMP-13 [1] = assay: Enzyme assay, fold change in probe fluorescence over background with MMP-13; assay type: biochemical, human; settings: different probe scaffolds (monomer, dendrimers); MMP-13 52 kDa
# Procedure: as §2, §3, §1
# [2] = tested on: MMPs-1, -2, -3, -7, -8, -9, -10, -11, -12, -13, Thrombin, Plasmin and Factor Xa; assay: Enzyme specificity of the FRET branched probes with exogenous enzymes (FIG. 8); assay type: biochemical, human; settings: probe 10 μM
# Procedure: FIG. 8. Enzyme specificity of the FRET branched probes A, B and C. Data represents the average fold change in fluorescence over background signal provided by probe (10 μM) with exogenous enzymes using a multiwell plate fluorimeter (Synergy H1 Hybrid Reader, BioTek instruments Ltd) at excitation/emission 485/528 nm. Recombinant human catalytic domain MMPs-1, -2, -3, -7, -8, -9, -10, -11, -12, -13 were used at 30 nM. Recombinant human Thrombin, Plasmin and Factor Xa were used at 5 U/ml, 30 nM, 0.5 μM, respectively.
# Three selected probes (A: AMF-106, B: SVC-186 B, and C: SVC-196) were evaluated in vitro in a new experiment including other members of the MMP family (MMPs-1, -2, -3, -7, -8, -9, -10, -11, -12, -13) as well as Thrombin, Plasmin and Factor Xa, and the results are shown in FIG. 8. […] The plasmin cleavage site was identified and attempts to make a resistant version replacing with D-aa in these positions were unsuccessful.
# as §1
# MMP-2 = assay: Enzyme assay, fold change in probe fluorescence over background with MMP-2; assay type: biochemical; settings: FRET monomers; recombinant human catalytic domain MMP at 30 nM; ex/em 485/528 nm
# Sequence of MMP-2 (P08253 with tags, fused parts or gaps DEL222-396 limits assumed): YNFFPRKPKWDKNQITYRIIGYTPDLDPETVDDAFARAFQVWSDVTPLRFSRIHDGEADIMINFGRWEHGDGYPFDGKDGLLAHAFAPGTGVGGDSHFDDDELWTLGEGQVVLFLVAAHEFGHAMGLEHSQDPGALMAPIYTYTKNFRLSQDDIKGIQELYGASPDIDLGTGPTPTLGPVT
# Procedure: as §2, §1
# Thrombin = molecular target: T1, Thrombin (Homo sapiens, UniProt P00734); assay: Enzyme assay, fold change in probe fluorescence with Thrombin; assay type: biochemical; settings: recombinant human Thrombin 5 U/ml; ex/em 485/528 nm
# T1 construct: purchased Sigma-Aldrich
# Procedure: as §2, §1
# MMP-13 [3] = molecular target: MMP-13 (Homo sapiens, UniProt P45452); assay: Enzyme assay, fold change in probe fluorescence over background with MMP-13; assay type: biochemical; parameters: purchased Enzo Life Sciences (catalytic domain); Merck/Millipore (full-length); settings: FRET monomers; recombinant human catalytic domain MMP at 30 nM; ex/em 485/528 nm
# Procedure: as §2, §3, §1
# MMP-12 = molecular target: T2, MMP-12 (Homo sapiens, UniProt P39900); assay: Enzyme assay, fold change in probe fluorescence over background with MMP-12; assay type: biochemical; settings: FRET monomers; recombinant human catalytic domain MMP at 30 nM; ex/em 485/528 nm
# T2 construct: Recombinant human catalytic domain MMPs-1, -2, -3, -7, -8, -9, -10, -11, -12, -13 were used at 30 nM; purchased Enzo Life Sciences
# T2 sequence (P39900 106-263 limits assumed): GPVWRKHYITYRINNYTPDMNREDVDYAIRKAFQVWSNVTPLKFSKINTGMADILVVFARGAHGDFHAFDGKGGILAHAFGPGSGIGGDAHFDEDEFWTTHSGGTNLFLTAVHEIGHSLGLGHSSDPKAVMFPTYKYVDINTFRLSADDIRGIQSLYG
# Procedure: as §2, §1
"MMP-9 (83 kDa), fold change in fluorescent signal (MMP-9)","MMP-13 (52 kDa), fold change in fluorescent signal (MMP-13 [1])",signal-to-noise (fold change above the background) [2],"selectivity for MMP-2/9 ([2]; MMPs 30 nM, Thrombin 5 U/ml, Plasmin 30 nM, Factor Xa 0.5 μM)","MMP-2 (20.3 kDa), fold change in fluorescence over background (MMP-2)","Inflammatory mediators: Thrombin, fold change in fluorescence over background (Thrombin)","MMP-9 (39.0 kDa), fold change in fluorescence over background (MMP-9)","MMP-13 (20.4 kDa), fold change in fluorescence over background (MMP-13 [3])","MMP-12 (20.3 kDa), fold change in fluorescence over background (MMP-12)",Substance,intensity upon activation by MMP (MMP),recognition of the cleavable sequence by MMP (MMP; FIG. 2)
–,–,–,–,–,–,–,–,–,Ac-PEG2-PFGNleKβA-K[K(FAM)2]-PEG2-k-PEG2-k-3 probe elements [SVC-01-198],much lower intensity,–
1.06,1.47,–,–,–,–,–,–,–,FAM-Ahx-G-P-K-G-L-K-G-3 probe elements ({5FAM-Ahx}-GPKGLKG; also: three probe elements on a scaffold) [TWB140],–,–
3.33,11.80,lower signal-to-noise,poor selectivity,–,–,–,–,–,FAM-K(FAM)-PEG2-PFGNleKβA-K(FAM)-PEG2-k-PEG2-k-3 probe elements ({5FAM-K(FAM)-PEG2′}-PFG[Nle]K[βAla]-{K(FAM)-PEG2′-code k-PEG2′-code k}; also: three probe elements on a scaffold) [SVC-196],–,–
2.92,7.11,–,–,–,–,–,–,–,FAM-K(FAM)-PEG2-PFGNleKβA-PEG2-k-PEG2-k-3 probe elements [SVC-189],–,–
–,–,–,–,2.10,1.37,4.22,9.33,1.54,FAM-PEG2-G-P-K-G-I-K-G-K(MR)-NH2 ({5FAM-PEG2′}-GPKGIKGK(MethylRed)-NH2) [SVC-26],–,–
–,–,–,–,1.98,1.31,3.50,9.30,2.34,FAM-PEG2-G-P-K-G-L-K-G-K(MR)-NH2 [SVC-24],–,–
–,–,–,–,2.70,1.48,4.53,11.75,1.46,FAM-PEG2-G-P-K-G-Nle-K-G-K(MR)-NH2 [SVC-27],–,–
–,–,–,–,3.27,0.94,5.89,11.75,2.45,FAM-PEG2-P-Cha-G-M-F-G-K(MR)-NH2 [SVC-15],–,–
–,–,–,–,4.01,0.97,7.53,12.93,3.05,FAM-PEG2-P-Cha-G-M-H-G-K(MR)-NH2 [SVC-21],–,–
–,–,–,–,4.24,1.02,8.21,14.88,2.61,FAM-PEG2-P-Cha-G-M-K-G-K(MR)-NH2 [SVC-22],–,–
–,–,–,–,5.22,1.00,9.61,15.9,3.21,FAM-PEG2-P-Cha-G-M-K-βA-K(MR)-NH2 [SVC-20],–,–
–,–,–,–,2.59,1.05,5.07,6.5,2.59,FAM-PEG2-P-Cha-G-M-W-G-K(MR)-NH2 [SVC-17],–,–
–,–,–,–,2.54,0.97,4.94,10.04,2.15,FAM-PEG2-P-Cha-G-M-Y(Me)-G-K(MR)-NH2 [SVC-18],–,–
–,–,–,–,4.07,1.04,6.90,11.26,2.87,FAM-PEG2-P-Cha-G-M-Y-G-K(MR)-NH2 [SVC-19],–,–
–,–,–,–,1.59,0.96,2.29,5.05,1.65,FAM-PEG2-P-F-G-I-K-βA-K(MR)-NH2 [AMF-24],–,–
–,–,–,–,1.87,0.89,2.50,6.41,3.03,FAM-PEG2-P-F-G-L-K-βA-K(MR)-NH2 [AMF-23],–,–
–,–,–,–,–,–,–,–,–,FAM-PEG2-P-F-G-M(S = O)-K-βA-K(MR)-NH2 [SVC-068],–,not recognised by MMP
–,–,–,–,3.11,0.99,5.21,13.57,1.88,FAM-PEG2-P-F-G-M-K-βA-K(MR)-NH2 [SVC-16],–,–
4.75,19.30,–,–,–,–,–,–,–,FAM-PEG2-P-F-G-Nle-K-βA-K(MR)-K-K-PEG2-PEG2-NH2 [AMF-92],–,–
–,–,–,–,1.88,0.96,2.02,5.27,1.53,FAM-PEG2-P-F-G-Nle-K-βA-K(MR)-NH2 [AMF-25],–,–
1.41,1.80,–,–,–,–,–,–,–,FAM-PEG2-PFGNleKβA-PEG2-k-PEG2-k-3 probe elements [SVC-188],–,–
3.66,10.57,–,–,–,–,–,–,–,MR-K(Ac)-PEG2-GPKGLKG-K(FAM)-PEG2-k-PEG2-k-PEG2-k-NH2 [AMF-111],–,–
